Seven compounds from ChEMBL document CHEMBL4229466, “Conformational Propensity and Biological Studies of Proline Mutated LR Peptides Inhibiting Human Thymidylate Synthase and Ovarian Cancer Cell Growth” (J Med Chem, 2018) can be followed below.

The source made the active and inactive calls. No cut-off for these calls is given here. Non-standard residues stand in square brackets, D forms with d. Residues, ends and D or L forms follow the SMILES beside them. Bounds are passed on as bounds.

The test system of assay [1] is IGROV-1. Put plainly: Effect on TS protein expression in human IGROV1 cells by Western blot analysis. The class given is functional, cell-based. In general terms: A western blot detects proteins with antibodies after separation by electrophoresis.
Assay [2] concerns IGROV-1. As to the kind of experiment: Effect on DHFR protein expression in human IGROV1 cells by Western blot analysis. In kind it is functional, cell-based.
In assay [3] the test system is IGROV-1. As to the kind of experiment: Effect on HSP90 protein expression in human IGROV1 cells by Western blot analysis. In kind it is functional, cell-based.
Assay [4] has as its system IGROV-1. As to the kind of experiment: Downregulation of TRAP1 protein levels in human IGROV1 cells by Western blot analysis. The class given is functional, cell-based.
The subject of the next assay is C13. As to the kind of experiment: Cytotoxicity against human C13 cells after 72 hrs. The class given is functional, cell-based. As to conditions: C13, 72 h.
Another assay deals with 2008. Put plainly: Cytotoxicity against human 2008 cells. The class given is functional, cell-based.
The subject of assay [5] is IGROV-1. As to the kind of experiment: Cytotoxicity against human IGROV1 cells after 72 hrs. The class given is functional, cell-based. As to conditions: IGROV-1, 72 h.
Assay [6] concerns the target Thymidylate synthase (Homo sapiens) (UniProt P04818). Put plainly: Inhibition of thymidylate synthase in human IGROV1 cell lysate using [5-3H]dUMP as substrate assessed as decrease in residual activity at 5 uM after 60 mins by liquid scintillation counting analysis relative to control.

Sequence of Thymidylate synthase (Homo sapiens) (P04818 2-313 limits assumed): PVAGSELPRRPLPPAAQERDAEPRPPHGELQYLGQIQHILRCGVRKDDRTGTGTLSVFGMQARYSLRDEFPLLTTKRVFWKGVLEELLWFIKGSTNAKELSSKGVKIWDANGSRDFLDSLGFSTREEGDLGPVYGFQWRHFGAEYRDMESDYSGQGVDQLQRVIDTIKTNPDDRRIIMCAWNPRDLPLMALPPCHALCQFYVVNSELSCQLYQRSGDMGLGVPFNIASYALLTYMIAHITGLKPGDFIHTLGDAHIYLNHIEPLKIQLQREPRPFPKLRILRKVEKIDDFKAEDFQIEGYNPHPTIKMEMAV

Take `Nc1nc2[nH]cc(CCc3ccc(C(=O)N[C@@H](CCC(=O)O)C(=O)O)cc3)c2c(=O)[nH]1`: the outcome in the assay on IGROV-1 [1], with IGROV-1 [2] and in the assay on IGROV-1 [3] was Active.

Take `CC(C)C[C@H](NC(=O)[C@@H](CCC(N)=O)NC(=O)[C@H](CS)NC(=O)[C@H](CO)NC(=O)[C@@H](N)CC(C)C)C(=O)N[C@@H](Cc1ccc(O)cc1)C(=O)N[C@@H](CCC(N)=O)C(=O)N[C@@H](CCCNC(=N)N)C(=O)O` (H-LSC[dQ]LYQR-OH): the outcome in the assay on IGROV-1 [4] was Active.

For `O=c1[nH]cc(F)c(=O)[nH]1` [FLUOROURACIL], the IC50 in the assay on C13 was found to be 12.1 µM; with 2008, 6 µM; with IGROV-1 [5], 10.6 µM. For the same compound, in assay [6], the inhibition result is “Active”.

Turning to H-LSCPLYQR-OH, the outcome with IGROV-1 [1], with IGROV-1 [2], with IGROV-1 [4] and in the assay with IGROV-1 [3] was Active. In addition, the results for the 50% inhibitory concentration (IC50) in the assay with C13, with 2008 and in the assay with IGROV-1 [5] were 3.55 to 8.1 µM, 0.96 to 1.57 µM and 4.32 to 12.1 µM, respectively. Also, in assay [6], the inhibition stood at 25%.

On to H-LSCQLYPR-OH, for which the IC50 in the assay on C13 was 3.55 to 8.1 µM; in the assay with 2008 it was 0.96 to 1.57 µM; with IGROV-1 [5] it was 4.32 µM. Moreover, in assay [6], the inhibition is over 30%.

As to H-LSCQLYQR-OH, the IC50 was found to be 9.5 µM in the assay on C13, 4.6 µM in the assay with 2008 and 8.2 µM with IGROV-1 [5].

As to H-LSPQLYQR-OH, the result with IGROV-1 [1], in the assay with IGROV-1 [2] and with IGROV-1 [3] was Active. Besides, the 50% inhibitory concentration (IC50) was 3.55 to 8.1 µM in the assay on C13, 0.96 to 1.57 µM in the assay with 2008 and 6.2 µM in the assay on IGROV-1 [5]. In assay [6], the inhibition was 25%.

Broadly, the IC50 is the concentration that gives 50% inhibition. High values mean weaker potency in that assay, low ones greater potency in that assay. A word on the inhibition: it is the relative decrease from the control value, in per cent.
